These results are taken from patent US20230365592A1 (Agios Pharmaceuticals, Inc., priority 2022, published 2023).

The target in the test is T1, human PAH with the R408W mutation (Homo sapiens, UniProt P00439, R408W).
T1 construct: expressed in transfected cells
T1 sequence (P00439 1-452 R408W): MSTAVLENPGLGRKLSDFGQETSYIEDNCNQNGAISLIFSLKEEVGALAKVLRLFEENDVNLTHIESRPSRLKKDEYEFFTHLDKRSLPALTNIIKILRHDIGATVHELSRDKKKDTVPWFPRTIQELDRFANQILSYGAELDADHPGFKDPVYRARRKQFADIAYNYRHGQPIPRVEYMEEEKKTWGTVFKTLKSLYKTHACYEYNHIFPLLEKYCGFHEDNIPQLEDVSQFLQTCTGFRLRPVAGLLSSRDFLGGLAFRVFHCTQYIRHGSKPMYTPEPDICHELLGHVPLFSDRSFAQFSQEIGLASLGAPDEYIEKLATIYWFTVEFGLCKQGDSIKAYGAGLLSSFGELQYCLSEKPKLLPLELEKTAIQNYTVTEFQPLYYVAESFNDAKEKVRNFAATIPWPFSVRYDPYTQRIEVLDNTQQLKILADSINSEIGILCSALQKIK
Kind of test: Cell Based Phenylalanine Flux Assay.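 Note: after compound treatment, cells received sepiapterin plus isotope-labelled Phenylalanine for 4 hours, then labelled Tyrosine in the medium was quantified, 10-point 2-fold dilution series run in duplicate.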 Conditions: A375 cells expressing human R408W PAH; 24 hrs compound incubation; 13C-Tyrosine by LC-MS; average where tested multiple times; read-out: AC50.

Consider `O=C(c1ccnn1C(F)F)N1CCc2[nH]cnc2[C@H]1c1cc2c(Cl)cccn2n1` [Example 782, (S)-(4-(4-chloropyrazolo[1,5-a]pyridin-2-yl)-6,7-dihydro-1H-imidazo[4,5-c]pyridin-5(4H)-yl)(1-(difluoromethyl)-1H-pyrazol-5-yl)methanone], for which the AC50 (in general, the concentration giving half of the maximal activity seen) is less than 500 nM. Take `Cc1c([C@@H]2c3nc[nH]c3CCN2C(=O)c2ocnc2C(F)F)nn2ccccc12` [Example 784, (S)-(4-(difluoromethyl)oxazol-5-yl)(4-(3-methylpyrazolo[1,5-a]pyridin-2-yl)-6,7-dihydro-1H-imidazo[4,5-c]pyridin-5(4H)-yl)methanone]: the AC50 is less than 500 nM. Take `Cc1c([C@H]2c3nc[nH]c3CCN2C(=O)c2ocnc2C(F)F)nn2ccccc12` [Example 785, (R)-(4-(difluoromethyl)oxazol-5-yl)(4-(3-methylpyrazolo[1,5-a]pyridin-2-yl)-6,7-dihydro-1H-imidazo[4,5-c]pyridin-5(4H)-yl)methanone]: the half-maximal activity concentration (AC50) is 1000 to 5000 nM.

As for `Cc1c([C@@H]2c3nc[nH]c3CCN2C(=O)c2oc(C(C)(C)O)nc2C(F)F)nn2ccccc12` [Example 786, (S)-(4-(difluoromethyl)-2-(2-hydroxypropan-2-yl)oxazol-5-yl)(4-(3-methylpyrazolo[1,5-a]pyridin-2-yl)-6,7-dihydro-1H-imidazo[4,5-c]pyridin-5(4H)-yl)methanone], the AC50 was less than 500 nM. The value for `COc1ccc(-c2nnc(C(=O)N3CCc4[nH]cnc4[C@@H]3c3cc4c(F)cccn4n3)o2)nc1` [Example 789, (R)-(4-(4-fluoropyrazolo[1,5-a]pyridin-2-yl)-6,7-dihydro-1H-imidazo[4,5-c]pyridin-5(4H)-yl)(5-(5-methoxypyridin-2-yl)-1,3,4-oxadiazol-2-yl)methanone] was 1000 to 5000 nM. With `O=C(c1nnc(-c2ncccc2F)o1)N1CCc2[nH]cnc2[C@@H]1c1cc2c(F)cccn2n1` [Example 790, (R)-(4-(4-fluoropyrazolo[1,5-a]pyridin-2-yl)-6,7-dihydro-1H-imidazo[4,5-c]pyridin-5(4H)-yl)(5-(3-fluoropyridin-2-yl)-1,3,4-oxadiazol-2-yl)methanone], the AC50 is greater than 5000 nM.

For `Cc1cccc2cc([C@@H]3c4nc[nH]c4CCN3C(=O)c3ocnc3C(F)F)nn12` [Example 792, (S)-(4-(difluoromethyl)oxazol-5-yl)(4-(7-methylpyrazolo[1,5-a]pyridin-2-yl)-6,7-dihydro-1H-imidazo[4,5-c]pyridin-5(4H)-yl)methanone], the AC50 is less than 500 nM.

Consider `Cc1cccc2cc([C@H]3c4nc[nH]c4CCN3C(=O)c3ocnc3C(F)F)nn12` [Example 793, (R)-(4-(difluoromethyl)oxazol-5-yl)(4-(7-methylpyrazolo[1,5-a]pyridin-2-yl)-6,7-dihydro-1H-imidazo[4,5-c]pyridin-5(4H)-yl)methanone], for which the half-maximal activity concentration (AC50) was in the range of 500 to 1000 nM. The value for `Cc1cccc2cc([C@@H]3c4nc[nH]c4CCN3C(=O)c3oc(C(C)(C)O)nc3C(F)F)nn12` [Example 794, (S)-(4-(difluoromethyl)-2-(2-hydroxypropan-2-yl)oxazol-5-yl)(4-(7-methylpyrazolo[1,5-a]pyridin-2-yl)-6,7-dihydro-1H-imidazo[4,5-c]pyridin-5(4H)-yl)methanone] was less than 500 nM; that for `Cc1cccc2cc([C@H]3c4nc[nH]c4CCN3C(=O)c3oc(C(C)(C)O)nc3C(F)F)nn12` [Example 795, (R)-(4-(difluoromethyl)-2-(2-hydroxypropan-2-yl)oxazol-5-yl)(4-(7-methylpyrazolo[1,5-a]pyridin-2-yl)-6,7-dihydro-1H-imidazo[4,5-c]pyridin-5(4H)-yl)methanone] was 1000 to 5000 nM. For the compound `O=C(c1nnc(-c2cnn(C(F)F)c2)o1)N1CCc2[nH]cnc2[C@H]1c1cc2c(F)cccn2n1` [Example 796, (S)-(5-(1-(difluoromethyl)-1H-pyrazol-4-yl)-1,3,4-oxadiazol-2-yl)(4-(4-fluoropyrazolo[1,5-a]pyridin-2-yl)-6,7-dihydro-1H-imidazo[4,5-c]pyridin-5(4H)-yl)methanone], the AC50 was less than 500 nM. Then `Cc1cccc2cc([C@@H]3c4nc[nH]c4CCN3C(=O)c3nnc(-c4ccccn4)o3)nn12` [Example 798, (S)-(4-(7-methylpyrazolo[1,5-a]pyridin-2-yl)-6,7-dihydro-1H-imidazo[4,5-c]pyridin-5(4H)-yl)(5-(pyridin-2-yl)-1,3,4-oxadiazol-2-yl)methanone], with less than 500 nM. Then `Cc1cccc2cc([C@H]3c4nc[nH]c4CCN3C(=O)c3nnc(-c4cnn(C)c4)o3)nn12` [Example 801, (R)-(5-(1-methyl-1H-pyrazol-4-yl)-1,3,4-oxadiazol-2-yl)(4-(7-methylpyrazolo[1,5-a]pyridin-2-yl)-6,7-dihydro-1H-imidazo[4,5-c]pyridin-5(4H)-yl)methanone], with greater than 5000 nM; and `Cc1cccc2cc([C@H]3c4nc[nH]c4CCN3C(=O)c3nnc(-c4ccn(C)n4)o3)nn12` [Example 803, (R)-(5-(1-methyl-1H-pyrazol-3-yl)-1,3,4-oxadiazol-2-yl)(4-(7-methylpyrazolo[1,5-a]pyridin-2-yl)-6,7-dihydro-1H-imidazo[4,5-c]pyridin-5(4H)-yl)methanone], with greater than 5000 nM; and `Cc1ccc2cc([C@H]3c4nc[nH]c4CCN3C(=O)c3oc(C(C)(C)O)nc3C(F)F)nn2c1` [Example 805], with 1000 to 5000 nM. Then `Cc1cccn2nc([C@H]3c4nc[nH]c4CCN3C(=O)c3nnc(-c4cn(C)cn4)o3)cc12` [Example 807, (R)-(5-(1-methyl-1H-imidazol-4-yl)-1,3,4-oxadiazol-2-yl)(4-(4-methylpyrazolo[1,5-a]pyridin-2-yl)-6,7-dihydro-1H-imidazo[4,5-c]pyridin-5(4H)-yl)methanone], with greater than 5000 nM.

On to `Cn1cnc(-c2nnc(C(=O)N3CCc4[nH]cnc4[C@@H]3c3cc4c(F)cccn4n3)o2)c1` [Example 808, (R)-(4-(4-fluoropyrazolo[1,5-a]pyridin-2-yl)-6,7-dihydro-1H-imidazo[4,5-c]pyridin-5(4H)-yl)(5-(1-methyl-1H-imidazol-4-yl)-1,3,4-oxadiazol-2-yl)methanone], for which the AC50 was greater than 5000 nM.

In the case of `Cn1cnc(-c2nnc(C(=O)N3CCc4[nH]cnc4[C@H]3c3cc4c(F)cccn4n3)o2)c1` [Example 809, (S)-(4-(4-fluoropyrazolo[1,5-a]pyridin-2-yl)-6,7-dihydro-1H-imidazo[4,5-c]pyridin-5(4H)-yl)(5-(1-methyl-1H-imidazol-4-yl)-1,3,4-oxadiazol-2-yl)methanone], the AC50 was 500 to 1000 nM.

As to `CC(C)(O)c1nc(C(F)F)c(C(=O)N2CCc3[nH]cnc3[C@H]2c2cc3c(C(F)(F)F)cccn3n2)o1` [Example 810, (S)-(4-(difluoromethyl)-2-(2-hydroxypropan-2-yl)oxazol-5-yl)(4-(4-(trifluoromethyl)pyrazolo[1,5-a]pyridin-2-yl)-6,7-dihydro-1H-imidazo[4,5-c]pyridin-5(4H)-yl)methanone], the AC50 was less than 500 nM. The value for `CC(C)(O)c1nc(C(F)F)c(C(=O)N2CCc3[nH]cnc3[C@@H]2c2cc3c(C(F)(F)F)cccn3n2)o1` [Example 811, (R)-(4-(difluoromethyl)-2-(2-hydroxypropan-2-yl)oxazol-5-yl)(4-(4-(trifluoromethyl)pyrazolo[1,5-a]pyridin-2-yl)-6,7-dihydro-1H-imidazo[4,5-c]pyridin-5(4H)-yl)methanone] was 1000 to 5000 nM. The value for `Cc1ccc2cc([C@@H]3c4nc[nH]c4CCN3C(=O)c3nnc(-c4ccccn4)o3)nn2c1` [Example 812, (S)-(4-(6-methylpyrazolo[1,5-a]pyridin-2-yl)-6,7-dihydro-1H-imidazo[4,5-c]pyridin-5(4H)-yl)(5-(pyridin-2-yl)-1,3,4-oxadiazol-2-yl)methanone] was 500 to 1000 nM; that for `Cc1ccc2cc([C@H]3c4nc[nH]c4CCN3C(=O)c3nnc(-c4ccccn4)o3)nn2c1` [Example 813, (R)-(4-(6-methylpyrazolo[1,5-a]pyridin-2-yl)-6,7-dihydro-1H-imidazo[4,5-c]pyridin-5(4H)-yl)(5-(pyridin-2-yl)-1,3,4-oxadiazol-2-yl)methanone] was greater than 5000 nM; that for `Cc1ccc2cc([C@@H]3c4nc[nH]c4CCN3C(=O)c3nnc(-c4ccn(C)n4)o3)nn2c1` [Example 814, (S)-(5-(1-methyl-1H-pyrazol-3-yl)-1,3,4-oxadiazol-2-yl)(4-(6-methylpyrazolo[1,5-a]pyridin-2-yl)-6,7-dihydro-1H-imidazo[4,5-c]pyridin-5(4H)-yl)methanone] was less than 500 nM.

As to `Cc1ccc2cc([C@H]3c4nc[nH]c4CCN3C(=O)c3nnc(-c4ccn(C)n4)o3)nn2c1` [Example 815, (R)-(5-(1-methyl-1H-pyrazol-3-yl)-1,3,4-oxadiazol-2-yl)(4-(6-methylpyrazolo[1,5-a]pyridin-2-yl)-6,7-dihydro-1H-imidazo[4,5-c]pyridin-5(4H)-yl)methanone], the AC50 is greater than 5000 nM. On to `COc1ccc(-c2nnc(C(=O)N3CCc4[nH]cnc4[C@@H]3c3cc4c(C)cccn4n3)o2)nc1` [Example 816, (R)-(5-(5-methoxypyridin-2-yl)-1,3,4-oxadiazol-2-yl)(4-(4-methylpyrazolo[1,5-a]pyridin-2-yl)-6,7-dihydro-1H-imidazo[4,5-c]pyridin-5(4H)-yl)methanone], for which the AC50 is greater than 5000 nM.
